Laboratory results as given in patent publication US9714433B2, “Human pluripotent stem cells induced from undifferentiated stem cells derived from a human postnatal tissue” (Kyoto University, priority 2007, dated 2017).

Tests used:
syngeneic C57BL/6N mice = test: Teratoma formation of induced mouse pluripotent stem cells transplanted subcutaneously; assay type: in vivo; details: cells induced by three genes + MS-275; 2×10^7 cells/mouse subcutaneously; 34 days later; three germ layers observed
Method: From the extracted teratoma, slices were prepared, and differentiation potential into three germ layers was analyzed by immunological and histological staining (HE stain, alcian blue stain). As a result, GFAP-positive cells (the nervous system) and keratin producing cells (skin cells) as the ectodermic system, smooth muscle actin-positive cells (smooth muscle cells), bone tissues and cartilage tissues as the mesodermic system, and intestinal tract tissues (endodermal epithelium positive for MUC-1) as the endodermic system were observed.

[1] = system: cells derived from mouse bone marrow; test: Induction of mouse pluripotent stem cells by three gene introduction and MS-275 treatment (colony formation, alkaline phosphatase staining); assay type: cell-based
Method: Staining for confirming alkaline phosphatase activity which is a characteristic of pluripotent stem cells was conducted in the following manner. After removing the culture medium, a 10% formalin neutral buffer solution was added to wells, and cells were fixed at room temperature for 5 minutes. After washing with a phosphate buffer etc., a chromogenic substrate of alkaline phosphatase, 1 step NBT/BCIP (manufactured by Pierce) was added and reacted at room temperature for 20 to 30 minutes. Cells having alkaline phosphatase activity were all stained blue violet.
The primary culture cells derived from mouse bone marrow containing undifferentiated stem cells that had been stored frozen after preparing in a manner similar to Example 11 were plated at a concentration of 5×10^3 cells/cm^2 on a 24-well plastic plate (manufactured by Becton Dickinson) having the bottom which had been gelatin-coated with a 0.1% gelatin/phosphate buffer, and 2 ml each of the MAPC medium was added.
Eight hours later, the medium was removed, 2 ml each of the three gene (human Oct3/4, Sox2 and Klf4) retrovirus vector solution prepared as in Example 1 were added, and after further adding MS-275, a histone deacetylase inhibitor, at a final concentration of 1 or 0.1 μM, they were cultured at 37° C. for 14 hours. […]

mouse Nanog = test: Nanog expression of colonies by quantitative PCR; assay type: cell-based; details: three genes + MS-275 0.1 or 1.0 μM; compared with alkaline phosphatase-negative colonies; FIG. 3
Method: The expression of target gene of each colony including an alkaline phosphatase-positive colonies was determined using quantitative PCR in the following manner. Colonies developed by the induction of pluripotent stem cells were harvested, and RNA was extracted using the Recoverall total nucleic acid isolation kit for FFPE (manufactured by Ambion). After synthesizing cDNA from the extracted RNA, the target gene was amplified using the Taqman Preamp mastermix (manufactured by Applied Biosystems). As the primers for quantitative PCR, the Taqman gene exprESsion assay (manufactured by Applied Biosystems) was used. […] Human Hprt: Hs99999909_m1, human Nanog: Hs02387400_g1, human Tert: Hs00162669_m1, Mouse Hprt: Mm01545399_m1, mouse Nanog: Ma02019550_s1. Then, the amount expressed of the Nanog gene was confirmed by quantitative PCR, and the expression of mouse Nanog of colonies of pluripotent stem cells having alkaline phosphatase activity was confirmed (FIG. 3).

SMILES: Nc1ccccc1NC(=O)c1ccc(CNC(=O)OCc2cccnc2)cc1 [MS-275, N-(2-aminophenyl)-4-[N-(pyridine-3-yl-methoxycarbonyl)aminomethyl]benzamide]
- teratoma formation (syngeneic C57BL/6N mice): teratoma that formed was extracted
- formation of pluripotent stem cell colonies ([1]; three genes (human Oct3/4, Sox2, Klf4) retrovirus + MS-275 1 or 0.1 μM, fifteen days after): formed colonies composed of mouse ES cell-like small cells
- alkaline phosphatase activity staining of colonies ([1]; three genes + MS-275 1 or 0.1 μM): stained blue violet by alkaline phosphatase activity
- expression of Nanog in alkaline phosphatase-positive colonies (mouse Nanog): significantly higher than the alkaline phosphatase-negative colonies
